Like-named read-outs stand apart in the source and are kept apart here.
Experiments:
[1] = tested on: human primary fibroblasts (CRL2097); assay: Immunofluorescence staining of oligodendrocyte-specific markers in chemically treated fibroblasts; type: cell-based; conditions: compared to the solvent control group (FIG. 1B)
Experimental: Cells (1×10^4 per well) were plated on 24-well plates. Cells were cultured in HG-DMEM (Life Technologies) supplemented with 10% fetal bovine serum (FBS) (Hyclone) for 2 days. Then the medium was replaced with DMEM/F12 (Gibco) with 1% N2 supplement, 1% B27 supplement (all from Life Technologies), 20 ng/ml Platelet-Derived Growth Factor AA (PDGF-AA), 20 ng/ml Epidermal Growth Factor (EGF), 20 ng/mL Basic Fibroblast Growth Factor (bFGF), 20 ng/ml Neurotrophin-3 (NT3) (all from Peprotech). Then the cells were treated with 3 mM valproic acid (Tocris) for 2 days, 10 μM Y27632 (LC Laboratories), 10 μM SU9516 (R&D Systems), and 10 μM Forskolin (FSK) (Tocris) for 1 day. The reagent is listed in supplementary Table S1 and Table S2. Cells were fixed with 4% formaldehyde for 15 minutes at room temperature, and washed once with 1×Phosphate Buffered Saline (PBS). Cells were permeabilized with 0.3% Triton X-100 for 5 minutes, washed twice with 1×PBS, and blocked in 2% Bovine Serum Albumin (BSA) in PBS for 30 minutes. […] Fluorescence was analyzed using a fluorescence microscope (Axiovert 200 M, Zeiss).

[2] = tested on: human primary fibroblasts (CRL2097); assay: Morphology screening for conversion of fibroblasts into oligodendrocyte-like cells; type: cell-based; conditions: for morphological changes in fibroblasts (dendritic and dome-shaped): human fibroblasts CRL2097, phase-contrast, vs solvent control (FIG. 1A)
Experimental: The human normal foreskin skin fibroblast primary cells (CRL-2097) were obtained from the ATCC. CRL-2097 cells were cultured at 37° C. with 5% CO2 in high glucose Dulbecco's Modified Eagle's Medium (HG-DMEM) (Life Technologies) supplemented with 10% fetal bovine serum (FBS) (Hyclone). Cell viability was determined by trypan blue staining. All of the cultures were free of mycoplasma. This study was approved by the Academia Sinica ethics committee (IRB number: AS-IRB-BM-17008, AS-IRB-BM-20038). Cells (1×10^4 per well) were plated on 24-well plates. Cells were cultured in HG-DMEM (Life Technologies) supplemented with 10% fetal bovine serum (FBS) (Hyclone) for 2 days. Then the medium was replaced with DMEM/F12 (Gibco) with 1% N2 supplement, 1% B27 supplement (all from Life Technologies), 20 ng/ml Platelet-Derived Growth Factor AA (PDGF-AA), 20 ng/ml Epidermal Growth Factor (EGF), 20 ng/mL Basic Fibroblast Growth Factor (bFGF), 20 ng/ml Neurotrophin-3 (NT3) (all from Peprotech). Then the cells were treated with 3 mM valproic acid (Tocris) for 2 days, 10 μM Y27632 (LC Laboratories), 10 μM SU9516 (R&D Systems), and 10 μM Forskolin (FSK) (Tocris) for 1 day. The reagent is listed in supplementary Table S1 and Table S2. To find out which chemicals could convert fibroblasts into oligodendrocyte-like cells, we screened chemically-treated cells based on morphological changes that included the formation of a dendritic morphology of neural lineage cells and the dome-shaped morphology of the cell bodies of oligodendrocytes. In a preliminary screen, two chemicals, Y27632 and SU9516, were identified that may be involved in triggering the generation of oligodendrocyte-like cells from human primary fibroblasts (CRL2097). […] To characterize the induced oligodendrocyte-like cells, we performed immunofluorescence staining to analyze the expression of oligodendrocyte-specific markers. […] Next, to optimize the two-chemical cocktail, we performed an additional high-throughput screen using a chemical library of over 1,500 molecules purchased from Selleckchem®. […]

[3] = tested on: cuprizone-induced demyelination; conditions: cited from earlier work

SMILES	expression of oligodendrocyte-specific marker 4 (O4) by immunofluorescence [1]	morphological changes in fibroblasts (dendritic and dome-shaped) [2]	also measured
C[C@@H](N)[C@H]1CC[C@H](C(=O)Nc2ccncc2)CC1 [Y27632, Trans-4-[(1R)-1-Aminoethyl]-N-(4-pyridinyl)cyclohexanecarboxamide]	higher 04 expression	induced morphological changes	
COc1ccc2c(c1)c(CC(=O)O)c(C)n2C(=O)c1ccc(Cl)cc1 [Indomethacin]			remyelination ([3]; 10-week cuprizone-induced demyelination model, ref [33]): promote remyelination
COc1ccc2c(c1)/C(=C/c1cnc[nH]1)C(=O)N2 [SU9516, (Z)-3-((1H-imidazol-5-yl)methylene)-5-methoxyindolin-2-one]	higher 04 expression	induced morphological changes	
CC(C)(C)[C@]1(O)CC2OC(=O)CC23C(=O)OC2OC(=O)[C@H](O)C231 (some centres unmarked) [Bilobalide]			remyelination ([3]; cuprizone-induced 6-week model, ref [36]): promote remyelination
CCCC(CCC)C(=O)O [VPA, valproic acid]			conversion efficiency, VPA pretreatment vs co-treatment with YSF ([2]; VPA 2 days then YSF 1 day, or VPA co-treated with YSF 1 day (FIG. 1D)): only pretreatment could improve the conversion efficiency
CNC(=O)c1cc(Oc2ccc3nc(N[C@@H]4CCCC[C@H]4O)sc3c2)ccn1 [BLZ945]			remyelination ([3]; 5-week cuprizone-induced model, ref [34]): enhances remyelination

— patent US20240316014A1, “METHOD FOR TREATING DEMYELINATING CONDITIONS” (ACADEMIA SINICA, priority 2023, published 2024)
